{
  "source": "patent US20050197350A1",
  "about": "“Novel quinoline, tetrahydroquinazoline, and pyrimidine derivatives and methods of treatment related to the use thereof” (TAISHO PHARMACEUTICAL CO., LTD., priority 2003, published 2005)",
  "data": [
    {"system": "MCH receptors", "test": "MCH receptor activity class (method not given)", "settings": "class by percent of control at 10^-7 M or IC50", "values": [
      {"smiles": "COC(=O)c1scc(C)c1NC(=S)N[C@H]1CC[C@@H](Nc2nc3c(c(N(C)C)n2)CCCC3)CC1", "note": "[compound 1791]", "class": "3 (Class 3 The value of percent of control at 10^−7 M was more than 60% or the value of IC50 was more than 200 nM.)"},
      {"smiles": "COC(=O)c1sccc1NC(=S)N[C@H]1CC[C@@H](Nc2nc3c(c(N(C)C)n2)CCCC3)CC1", "note": "[compound 1792]", "class": "3 (Class 3 The value of percent of control at 10^−7 M was more than 60% or the value of IC50 was more than 200 nM.)"},
      {"smiles": "CCCCc1ccc(NC(=S)N[C@H]2CC[C@@H](Nc3nc4c(c(N(C)C)n3)CCCC4)CC2)c(C)c1", "note": "[compound 1793]", "class": "3 (Class 3 The value of percent of control at 10^−7 M was more than 60% or the value of IC50 was more than 200 nM.)"},
      {"smiles": "CN(C)c1nc(N[C@H]2CC[C@@H](NC(=O)Nc3cc(Cl)cc(Cl)c3)CC2)nc2c1CCCC2", "note": "[compound 1794]", "class": "3 (Class 3 The value of percent of control at 10^−7 M was more than 60% or the value of IC50 was more than 200 nM.)"},
      {"smiles": "CN(C)c1nc(N[C@H]2CC[C@@H](NC(=O)Nc3cccc(Cl)c3Cl)CC2)nc2c1CCCC2", "note": "[compound 1795]", "class": "2 (Class 2: The value of percent of control at 10^−7 M was from 40% to 60% or the value of IC′50 was from 50 nM to 200 nM.)"},
      {"smiles": "Cc1ccc(NC(=O)N[C@H]2CC[C@@H](Nc3nc4c(c(N(C)C)n3)CCCC4)CC2)cc1", "note": "[compound 1796]", "class": "2 (Class 2: The value of percent of control at 10^−7 M was from 40% to 60% or the value of IC′50 was from 50 nM to 200 nM.)"},
      {"smiles": "CC(C)c1cccc(C(C)C)c1NC(=O)N[C@H]1CC[C@@H](Nc2nc3c(c(N(C)C)n2)CCCC3)CC1", "note": "[compound 1797, N-(2,6-diisopropylphenyl)-N′-(cis-4-{[4-(dimethylamino)-5,6,7,8-tetrahydroquinazolin-2-yl]amino}cyclohexyl)urea]", "class": "2 (Class 2: The value of percent of control at 10^−7 M was from 40% to 60% or the value of IC′50 was from 50 nM to 200 nM.)"},
      {"smiles": "Cc1ccc([N+](=O)[O-])c(NC(=O)N[C@H]2CC[C@@H](Nc3nc4c(c(N(C)C)n3)CCCC4)CC2)c1C", "note": "[compound 1798]", "class": "3 (Class 3 The value of percent of control at 10^−7 M was more than 60% or the value of IC50 was more than 200 nM.)"},
      {"smiles": "CN(C)c1nc(N[C@H]2CC[C@@H](NC(=O)Nc3c(Br)cc(F)cc3Br)CC2)nc2c1CCCC2", "note": "[compound 1799]", "class": "3 (Class 3 The value of percent of control at 10^−7 M was more than 60% or the value of IC50 was more than 200 nM.)"},
      {"smiles": "CN(C)c1nc(N[C@H]2CC[C@@H](NC(=O)Nc3c(Cl)cccc3Cl)CC2)nc2c1CCCC2", "note": "[compound 1800]", "class": "3 (Class 3 The value of percent of control at 10^−7 M was more than 60% or the value of IC50 was more than 200 nM.)"},
      {"smiles": "COc1ccc(C)cc1NC(=O)N[C@H]1CC[C@@H](Nc2nc3c(c(N(C)C)n2)CCCC3)CC1", "note": "[compound 1801]", "class": "3 (Class 3 The value of percent of control at 10^−7 M was more than 60% or the value of IC50 was more than 200 nM.)"},
      {"smiles": "Cc1cccc([N+](=O)[O-])c1NC(=O)N[C@H]1CC[C@@H](Nc2nc3c(c(N(C)C)n2)CCCC3)CC1", "note": "[compound 1802]", "class": "3 (Class 3 The value of percent of control at 10^−7 M was more than 60% or the value of IC50 was more than 200 nM.)"},
      {"smiles": "CN(C)c1nc(N[C@H]2CC[C@@H](NC(=O)Nc3ccc(F)c(F)c3)CC2)nc2c1CCCC2", "note": "[compound 1803]", "class": "3 (Class 3 The value of percent of control at 10^−7 M was more than 60% or the value of IC50 was more than 200 nM.)"},
      {"smiles": "CN(C)c1nc(N[C@H]2CC[C@@H](NC(=O)Nc3cc(F)cc(F)c3)CC2)nc2c1CCCC2", "note": "[compound 1804]", "class": "3 (Class 3 The value of percent of control at 10^−7 M was more than 60% or the value of IC50 was more than 200 nM.)"},
      {"smiles": "CN(C)c1nc(N[C@H]2CC[C@@H](NC(=O)Nc3ccc(F)c(Cl)c3)CC2)nc2c1CCCC2", "note": "[compound 1805]", "class": "3 (Class 3 The value of percent of control at 10^−7 M was more than 60% or the value of IC50 was more than 200 nM.)"},
      {"smiles": "CC(=O)c1cccc(NC(=O)N[C@H]2CC[C@@H](Nc3nc4c(c(N(C)C)n3)CCCC4)CC2)c1", "note": "[compound 1806]", "class": "3 (Class 3 The value of percent of control at 10^−7 M was more than 60% or the value of IC50 was more than 200 nM.)"},
      {"smiles": "CC(=O)c1ccc(NC(=O)N[C@H]2CC[C@@H](Nc3nc4c(c(N(C)C)n3)CCCC4)CC2)cc1", "note": "[compound 1808]", "class": "3 (Class 3 The value of percent of control at 10^−7 M was more than 60% or the value of IC50 was more than 200 nM.)"},
      {"smiles": "CN(C)c1nc(N[C@H]2CC[C@@H](NC(=O)NC(=O)c3ccccc3)CC2)nc2c1CCCC2", "note": "[compound 1809]", "class": "3 (Class 3 The value of percent of control at 10^−7 M was more than 60% or the value of IC50 was more than 200 nM.)"},
      {"smiles": "CN(C)c1nc(N[C@H]2CC[C@@H](NC(=O)NC(C)(C)C)CC2)nc2c1CCCC2", "note": "[compound 1810]", "class": "3 (Class 3 The value of percent of control at 10^−7 M was more than 60% or the value of IC50 was more than 200 nM.)"},
      {"smiles": "CN(C)c1nc(N[C@H]2CC[C@@H](NC(=O)Nc3cc(C(F)(F)F)cc(C(F)(F)F)c3)CC2)nc2c1CCCC2", "note": "[compound 1811]", "class": "3 (Class 3 The value of percent of control at 10^−7 M was more than 60% or the value of IC50 was more than 200 nM.)"},
      {"smiles": "CN(C)c1nc(N[C@H]2CC[C@@H](NC(=O)NCc3ccccc3)CC2)nc2c1CCCC2", "note": "[compound 1812]", "class": "3 (Class 3 The value of percent of control at 10^−7 M was more than 60% or the value of IC50 was more than 200 nM.)"},
      {"smiles": "CN(C)c1nc(N[C@H]2CC[C@@H](NC(=O)Nc3ccc(Br)cc3)CC2)nc2c1CCCC2", "note": "[compound 1813]", "class": "3 (Class 3 The value of percent of control at 10^−7 M was more than 60% or the value of IC50 was more than 200 nM.)"},
      {"smiles": "CN(C)c1nc(N[C@H]2CC[C@@H](NC(=O)Nc3cccc(Cl)c3)CC2)nc2c1CCCC2", "note": "[compound 1814]", "class": "3 (Class 3 The value of percent of control at 10^−7 M was more than 60% or the value of IC50 was more than 200 nM.)"},
      {"smiles": "CN(C)c1nc(N[C@H]2CC[C@@H](NC(=O)Nc3ccc(Cl)cc3)CC2)nc2c1CCCC2", "note": "[compound 1815]", "class": "3 (Class 3 The value of percent of control at 10^−7 M was more than 60% or the value of IC50 was more than 200 nM.)"},
      {"smiles": "CN(C)c1nc(N[C@H]2CC[C@@H](NC(=O)NC3CCCCC3)CC2)nc2c1CCCC2", "note": "[compound 1816]", "class": "3 (Class 3 The value of percent of control at 10^−7 M was more than 60% or the value of IC50 was more than 200 nM.)"},
      {"smiles": "CN(C)c1nc(N[C@H]2CC[C@@H](NC(=O)Nc3cccc(C#N)c3)CC2)nc2c1CCCC2", "note": "[compound 1817]", "class": "3 (Class 3 The value of percent of control at 10^−7 M was more than 60% or the value of IC50 was more than 200 nM.)"},
      {"smiles": "CN(C)c1nc(N[C@H]2CC[C@@H](NC(=O)Nc3ccc(Cl)c(Cl)c3)CC2)nc2c1CCCC2", "note": "[compound 1818]", "class": "3 (Class 3 The value of percent of control at 10^−7 M was more than 60% or the value of IC50 was more than 200 nM.)"},
      {"smiles": "CN(C)c1nc(N[C@H]2CC[C@@H](NC(=O)Nc3ccc(Cl)cc3Cl)CC2)nc2c1CCCC2", "note": "[compound 1819]", "class": "3 (Class 3 The value of percent of control at 10^−7 M was more than 60% or the value of IC50 was more than 200 nM.)"},
      {"smiles": "CN(C)c1nc(N[C@H]2CC[C@@H](NC(=O)Nc3c(F)cccc3F)CC2)nc2c1CCCC2", "note": "[compound 1820]", "class": "3 (Class 3 The value of percent of control at 10^−7 M was more than 60% or the value of IC50 was more than 200 nM.)"},
      {"smiles": "CN(C)c1nc(N[C@H]2CC[C@@H](NC(=O)Nc3cc(Cl)ccc3Cl)CC2)nc2c1CCCC2", "note": "[compound 1821]", "class": "3 (Class 3 The value of percent of control at 10^−7 M was more than 60% or the value of IC50 was more than 200 nM.)"},
      {"smiles": "CCOC(=O)CNC(=O)N[C@H]1CC[C@@H](Nc2nc3c(c(N(C)C)n2)CCCC3)CC1", "note": "[compound 1822]", "class": "3 (Class 3 The value of percent of control at 10^−7 M was more than 60% or the value of IC50 was more than 200 nM.)"},
      {"smiles": "CCOC(=O)c1ccc(NC(=O)N[C@H]2CC[C@@H](Nc3nc4c(c(N(C)C)n3)CCCC4)CC2)cc1", "note": "[compound 1823]", "class": "3 (Class 3 The value of percent of control at 10^−7 M was more than 60% or the value of IC50 was more than 200 nM.)"},
      {"smiles": "CCc1ccc(NC(=O)N[C@H]2CC[C@@H](Nc3nc4c(c(N(C)C)n3)CCCC4)CC2)cc1", "note": "[compound 1824]", "class": "3 (Class 3 The value of percent of control at 10^−7 M was more than 60% or the value of IC50 was more than 200 nM.)"},
      {"smiles": "CCNC(=O)N[C@H]1CC[C@@H](Nc2nc3c(c(N(C)C)n2)CCCC3)CC1", "note": "[compound 1825]", "class": "3 (Class 3 The value of percent of control at 10^−7 M was more than 60% or the value of IC50 was more than 200 nM.)"},
      {"smiles": "CN(C)c1nc(N[C@H]2CC[C@@H](NC(=O)Nc3ccc(F)c([N+](=O)[O-])c3)CC2)nc2c1CCCC2", "note": "[compound 1826]", "class": "3 (Class 3 The value of percent of control at 10^−7 M was more than 60% or the value of IC50 was more than 200 nM.)"},
      {"smiles": "CN(C)c1nc(N[C@H]2CC[C@@H](NC(=O)Nc3cccc(F)c3)CC2)nc2c1CCCC2", "note": "[compound 1827]", "class": "3 (Class 3 The value of percent of control at 10^−7 M was more than 60% or the value of IC50 was more than 200 nM.)"},
      {"smiles": "CN(C)c1nc(N[C@H]2CC[C@@H](NC(=O)Nc3ccccc3F)CC2)nc2c1CCCC2", "note": "[compound 1828]", "class": "3 (Class 3 The value of percent of control at 10^−7 M was more than 60% or the value of IC50 was more than 200 nM.)"},
      {"smiles": "CC(C)c1ccc(NC(=O)N[C@H]2CC[C@@H](Nc3nc4c(c(N(C)C)n3)CCCC4)CC2)cc1", "note": "[compound 1829]", "class": "3 (Class 3 The value of percent of control at 10^−7 M was more than 60% or the value of IC50 was more than 200 nM.)"},
      {"smiles": "CC(C)NC(=O)N[C@H]1CC[C@@H](Nc2nc3c(c(N(C)C)n2)CCCC3)CC1", "note": "[compound 1830]", "class": "3 (Class 3 The value of percent of control at 10^−7 M was more than 60% or the value of IC50 was more than 200 nM.)"},
      {"smiles": "COc1ccc(NC(=O)N[C@H]2CC[C@@H](Nc3nc4c(c(N(C)C)n3)CCCC4)CC2)cc1", "note": "[compound 1831]", "class": "3 (Class 3 The value of percent of control at 10^−7 M was more than 60% or the value of IC50 was more than 200 nM.)"},
      {"smiles": "Cc1ccc(NC(=O)N[C@H]2CC[C@@H](Nc3nc4c(c(N(C)C)n3)CCCC4)CC2)c([N+](=O)[O-])c1", "note": "[compound 1832]", "class": "3 (Class 3 The value of percent of control at 10^−7 M was more than 60% or the value of IC50 was more than 200 nM.)"},
      {"smiles": "COc1ccccc1NC(=O)N[C@H]1CC[C@@H](Nc2nc3c(c(N(C)C)n2)CCCC3)CC1", "note": "[compound 1833]", "class": "3 (Class 3 The value of percent of control at 10^−7 M was more than 60% or the value of IC50 was more than 200 nM.)"}
    ]}
  ]
}
